The subject of series [1] is malignant cell lines with high HDAC and CTSL activity (COGA-10, HCA-7, HT29, HCT116). Put plainly: MTS cell viability assay, malignant colon cancer cell lines. To be noted: Homo sapiens, 120 h, 5 d, read-out: IC50, inhibition of cell viability. It counts as cell-based. As to the method: (§1) FIG. 13. Inhibition of cell viability by BKAc-Puro is presented in dose-response curve format for the same cell lines as in FIG. 8. The cell lines were treated with DMSO or the indicated doses of agent (4.22, 8.44, 16.9, 33.8, 67.5, or 135 μM) for 5 d followed by MTS assay. Data represent mean values of triplicate measurements±s.d. (n=3). IC50 values were fit by logistic regression.
Cell number was determined by cell counting using improved Neubauer hemacytometer. Cell viability was calculated as the number of viable cells divided by the total number of cells using Trypan Blue Stain (Invitrogen) to distinguish non-viable cells. Data were obtained from duplicated samples with quadruplicate measurements. MTS based cell viability assay was performed using CellTiter 96 Aqueous Cell Proliferation Assay (Promega) according to the manufacturer's instruction. […] After additional 2-3 h incubation, the absorbance of the formazan at 490 nm was measured by the microplate reader. […] Determination of non-viable cells using PI staining was performed by adding 1 μg/ml of PI solution (Sigma) to the cell culture, prior to the examination under fluorescence microscopy (Axiovert 3, Carl Zeiss) through a×32 objective equipped with a digital imaging processor (Infinity 3, Lumenera).

The next series deals with HCT116 xenograft tumor. As to the kind of experiment: HCT116 mouse xenograft model. In kind it is in vivo. From the text: FIG. 20. In vivo anticancer efficacy of BKAc-Puro. […] HCT116 cells were implanted subcutaneously into female nude mice. When the developed tumors reached 200 mm^3, animals were intraperitoneally injected by the indicated dose of the compound or vehicle control (DMSO). Tumor volume was estimated by the equation vol=(a×b^2)/2, where vol, a, and b represent volume, the length of the major axis, and the length of the minor axis, respectively. Arrows indicate the time points of treatment. (b) Body weight change during the treatment in a. Value is expressed in percent change compared to the day of the first treatment.
FIG. 21. HCT116 cells were implanted subcutaneously into female nude mice. When palpable tumors reached 50-150 mm^3, animals were randomized and treated by the indicated dose of the compound or vehicle control (DMSO) via intraperitoneal injection. Tumor incidence is presented as number of mice developed tumor (volume >300 mm^3) after 2 weeks of daily treatment/number of mice treated. Tumor volume was estimated by the equation vol=(a×b^2)/2, where vol, a, and b represent volume, the length of the major axis, and the length of the minor axis, respectively.
FIG. 29. In vivo anticancer efficacy of Boc-KAc-Puro. (a) Tumor growth in HCT116 xenograft model. Animals were treated with acidified saline control or Boc-KAc-Puro (50 or 150 mg/kg). Values are mean±s.d. (n=5 mice per group). *** P<0.001 compared to the control group. P=0.000716 (50 mg/kg), P=0.000349 (150 mg/kg) at 10 d. (b) Body weight change during the treatment in a and was monitored as a sign of general animal health. Values are mean±s.d. (c) Tumor growth in HT29 xenograft model. Animals were treated with acidified saline control or Boc-KAc-Puro (150 mg/kg). Values are mean±s.d. (n=5 mice per group). *** P<0.001 compared to the control group. P=0.000514 (150 mg/kg) at 10 d. (d) Body weight change during the treatment in c was monitored as a sign of general animal health. Values are mean±s.d. (e) Levels of Puro-incorporated proteins were monitored by immunoblotting. Animals bearing HT29 xenograft tumor were given daily intraperitoneal administration of the prodrug at 150 mg/kg/dose for 3 d, followed by preparation of tissue lysates. The lower panel (anti-α-Tubulin) served as a loading control.
To assess the in vivo efficacy of the compounds, mouse xenograft model using HCT116 colon cancer cells is used as an established evaluation method for the anticancer drugs against cancer (Cao, Z. A. et al. 2006). The growth inhibitory effects of the compounds on size-matched xenografts are examined by subcutaneous implantation of HCT116 cells into nude mice. HCT116 cells are injected subcutaneously and allowed to develop palpable tumors (50-150 mm^3) before initiation of drug administration. Mice (5-10 animals per group) are treated with the vehicle (DMSO or PBS) or the prodrugs by intraperitoneal administration. Dose ranges are determined by the dose escalation studies of the prodrugs. […] Relative tumor volume is calculated by dividing tumor volume by that on day 0 (the day of treatment initiation). […] Statistical significance of the data is evaluated by performing one-way ANOVA with post hoc Turkey's test to compare means (GraphPad Prism software). The efficacy of the compounds is further evaluated in a similar manner by using other cancer cell lines. […]

In series [2] the test system is non-malignant Caco-2 cells. Put plainly: MTS cell viability assay, Caco-2. In kind it is cell-based, human. As for the experimental part:
as §1
FIG. 14. Inhibition of cell viability by parental Puro. The cell lines were treated with the indicated doses of Puro (0, 1.1, 2.1, 4.2, or 8.4 μM) for 3 d followed by MTS assay. Data represent mean values of triplicate measurements±s.d.
Cell number was determined by cell counting using improved Neubauer hemacytometer. Cell viability was calculated as the number of viable cells divided by the total number of cells using Trypan Blue Stain (Invitrogen) to distinguish non-viable cells. Data were obtained from duplicated samples with quadruplicate measurements. MTS based cell viability assay was performed using CellTiter 96 Aqueous Cell Proliferation Assay (Promega) according to the manufacturer's instruction. Either 1 μl of DMSO alone or variable concentrations of BKAc-Puro or Puro in DMSO were added to the cell lines seeded at 5×10^4 cells per well in 96-well tissue culture plates in 100 μl of the growth medium, followed by 3-5 d incubation at 37° C. with 5% CO2 atmosphere. Then 20 μl of the MTS reagent was added to each well. After additional 2-3 h incubation, the absorbance of the formazan at 490 nm was measured by the microplate reader. Percent cell viability was expressed relative to the wells containing cells treated with DMSO alone. Data were obtained from triplicate measurements. […] Determination of non-viable cells using PI staining was performed by adding 1 μg/ml of PI solution (Sigma) to the cell culture, prior to the examination under fluorescence microscopy (Axiovert 3, Carl Zeiss) through a×32 objective equipped with a digital imaging processor (Infinity 3, Lumenera).

SMILES strings stand for the structures.

`COc1ccc(CC(NC(=O)C(CCCCNC(C)=O)NC(=O)OC(C)(C)C)C(=O)NC2C(O)[C@H](n3cnc4c(N(C)C)ncnc43)O[C@@H]2CO)cc1` (stereo partly drawn) [BKAc-Puro, N-[3′-(α-Amino-p-methoxyhydrocinnamamido)-3′-deoxy-N,N-dimethyldenosinyl)-N-α-(t-butoxycarbonyl]-N-ε-acetyl-L-lysineamide]: the IC50 in series [1] is approximately 10 µM; in series [2] (Homo sapiens, Caco-2, 120 h, MTS, 5 d, sufficient inhibition not achieved with doses up to 135 μM), more than 135 µM. Further, in the series on HCT116 xenograft tumor (200 mg/kg, intraperitoneal, 2 weeks daily), the “Tumors developed at 200 mg/kg” value was “no tumors greater than 300 mm^2 were observed”. For the same compound, the Tumor growth entry with HCT116 xenograft tumor (50 and 150 mg/kg/dose daily intraperitoneally for 10 d) is “dose-dependent inhibition of tumor growth”; in the series with HCT116 xenograft tumor (intraperitoneal, treatment from tumors of 200 mm^3, DMSO vehicle control), “inhibition of tumor growth”. In addition, the “Tumor mass in comparison to acidified saline control” value with HCT116 xenograft tumor (50 and 150 mg/kg/dose, 10 d, P<0.001) is listed as “significantly smaller tumor mass”. Besides, in the series with HCT116 xenograft tumor (intraperitoneal, 2 weeks of daily treatment), the Tumor incidence entry was “inhibition of tumor incidence”. Also, in series [2] (135 μM BKAc-Puro vs parental Puro), the “Highest inactive dose relative to dose of parental Puro effective to Caco-2 cells” value was “more than 30 times”.
